Reference: paper PMC3934494 (Chemistry & biology, 2013)
Like-named read-outs stand apart in the source and are kept apart here.

Assays:
Microsomal stability [1] = assay type: in vitro ADME; settings: human microsomes
Microsomal stability [2] = assay type: in vitro ADME; settings: rat microsomes
WT clade B virus = experiment: PhenoSense HIV antiviral assay; assay type: cell-based
[3] = test system: 12 patient-derived drug resistant viruses; experiment: PhenoSense HIV antiviral assay; assay type: cell-based
WT HIV-1 protease = WT HIV-1 protease (Human immunodeficiency virus type 1 group M subtype B, UniProt P04585); settings: FDA-approved drugs, ref Nalam, et al., 2010; cited from earlier work
[4] = molecular target: HIV-1 protease variant M3: I50V/A71V (Human immunodeficiency virus type 1 group M subtype B, UniProt P04585, A559V/I538V); experiment: FRET-based enzymatic assay, enzyme inhibition constants; assay type: biochemical; settings: M3 versus WT protease

| Structure (SMILES) | Microsomal Stability (Avg. % Fraction Remaining) at 30 Minutes Human (Microsomal stability [1]; RTV +) | Microsomal Stability (Avg. % Fraction Remaining) at 30 Minutes Human (Microsomal stability [1]; RTV −) | Microsomal Stability (Avg. % Fraction Remaining) at 60 Minutes Human (Microsomal stability [1]; RTV +) | Microsomal Stability (Avg. % Fraction Remaining) at 60 Minutes Human (Microsomal stability [1]; RTV −) | Microsomal CLint Human (Microsomal stability [1]; RTV +) | Microsomal T1/2 Human (Microsomal stability [1]; RTV +) | Microsomal CLint Human (Microsomal stability [1]; RTV −) | Microsomal T1/2 Human (Microsomal stability [1]; RTV −) | Microsomal Stability (Avg. % Fraction Remaining) at 30 Minutes Rat (Microsomal stability [2]; RTV +) | Microsomal Stability (Avg. % Fraction Remaining) at 30 Minutes Rat (Microsomal stability [2]; RTV −) | Microsomal Stability (Avg. % Fraction Remaining) at 60 Minutes Rat (Microsomal stability [2]; RTV +) | Microsomal Stability (Avg. % Fraction Remaining) at 60 Minutes Rat (Microsomal stability [2]; RTV −) | Microsomal CLint Rat (Microsomal stability [2]; RTV +) | Microsomal T1/2 Rat (Microsomal stability [2]; RTV +) | Microsomal CLint Rat (Microsomal stability [2]; RTV −) | Microsomal T1/2 Rat (Microsomal stability [2]; RTV −) | EC50 (WT clade B virus; WT clade B virus) | also measured |
| --- | --- | --- | --- | --- | --- | --- | --- | --- | --- | --- | --- | --- | --- | --- | --- | --- | --- | --- |
| CCC(CC)CN(C[C@@H](O)[C@H](Cc1ccccc1)NC(=O)O[C@H]1CO[C@H]2OCC[C@H]21)S(=O)(=O)c1ccc2c(c1)OCO2 [11d] | 55% | 0% | 46% | 0% | 46 μL min^-1 mg^1 | 45 min | 617 μL min^-1 mg^1 | 3 min | 21% | 0% | 4% | 0% | 156 μL min^-1 mg^1 | 13 min | 712 μL min^-1 mg^1 | 3 min | – | – |
| CC[C@H](C)CN(C[C@@H](O)[C@H](Cc1ccccc1)NC(=O)O[C@H]1CO[C@H]2OCC[C@H]21)S(=O)(=O)c1ccc(OC)cc1 [10b] | 79% | 0% | 68% | 0% | 19 μL min^-1 mg^1 | 110 min | 776 μL min^-1 mg^1 | 3 min | 0% | 0% | 0% | 0% | 518 μL min^-1 mg^1 | 4 min | 885 μL min^-1 mg^1 | 2 min | more potent | EC50 ([3]; read-out: average EC50, average against 12 different drug resistant strains): 1.33 nM |
| CCC(CC)CN(C[C@@H](O)[C@H](Cc1ccccc1)NC(=O)O[C@H]1CO[C@H]2OCC[C@H]21)S(=O)(=O)c1ccc(OC)cc1 [11b] | 75% | 0% | 66% | 0% | 23 μL min^-1 mg^1 | 90 min | 844 μL min^-1 mg^1 | 2 min | 50% | 18% | 20% | 19% | 74 μL min^-1 mg^1 | 28 min | 150 μL min^-1 mg^1 | 14 min | more potent | – |
| Cc1cccc(C)c1OCC(=O)N[C@@H](Cc1ccccc1)[C@@H](O)C[C@H](Cc1ccccc1)NC(=O)[C@H](C(C)C)N1CCCNC1=O [LPV] | – | – | – | – | – | – | – | – | – | – | – | – | – | – | – | – | – | Ki (WT HIV-1 protease): 0.005 nM |
| CCC(CC)CN(C[C@@H](O)[C@H](Cc1ccccc1)NC(=O)O[C@H]1CO[C@H]2OCC[C@H]21)S(=O)(=O)c1ccc(CO)cc1 [11c] | 64% | 0% | 69% | 0% | 26 μL min^-1 mg^1 | 81 min | 829 μL min^-1 mg^1 | 3 min | 79% | 0% | 57% | 0% | 27 μL min^-1 mg^1 | 78 min | 907 μL min^-1 mg^1 | 2 min | – | – |
| CC[C@H](C)CN(C[C@@H](O)[C@H](Cc1ccccc1)NC(=O)O[C@H]1CO[C@H]2OCC[C@H]21)S(=O)(=O)c1ccc(N)cc1 [10a] | 81% | 42% | 66% | 19% | 21 μL min^-1 mg^1 | 99 min | 81 μL min^-1 mg^1 | 26 min | 51% | 24% | 35% | 9% | 67 μL min^-1 mg^1 | 31 min | 129 μL min^-1 mg^1 | 16 min | – | – |
| CC[C@H](C)CN(C[C@@H](O)[C@H](Cc1ccccc1)NC(=O)O[C@H]1CO[C@H]2OCC[C@H]21)S(=O)(=O)c1ccc2c(c1)OCO2 [10d] | 80% | 9% | 60% | 4% | 24 μL min^-1 mg^1 | 85 min | 232 μL min^-1 mg^1 | 9 min | 0% | 0% | 0% | 0% | 771 μL min^-1 mg^1 | 3 min | 987 μL min^-1 mg^1 | 2 min | more potent | – |
| CC[C@H](C)CN(C[C@@H](O)[C@H](Cc1ccccc1)NC(=O)O[C@H]1CO[C@H]2OCC[C@H]21)S(=O)(=O)c1ccc(CO)cc1 [10c] | 93% | 0% | 89% | 0% | 8 μL min^-1 mg^1 | >180 min | 590 μL min^-1 mg^1 | 4 min | 45% | 0% | 22% | 0% | 79 μL min^-1 mg^1 | 26 min | 664 μL min^-1 mg^1 | 3 min | – | – |
| CC(C)CN(C[C@@H](O)[C@H](Cc1ccccc1)NC(=O)O[C@H]1CO[C@H]2OCC[C@H]21)S(=O)(=O)c1ccc(N)cc1 [DRV, Darunavir] | – | – | – | – | – | – | – | – | – | – | – | – | – | – | – | – | – | decrease in M3 susceptibility compared to WT protease [4]: 50 fold; EC50 (WT clade B virus): 0.4 nM; EC50 ([3]; Human immunodeficiency virus 1, read-out: average EC50): 5.98 nM; antiviral potency ([3]; MDR strains with the I50V protease mutation): loses significant potency |
